Source: ChEMBL document CHEMBL1201862, “PubChem BioAssay data set” (2004)
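Grown in 96-well plates, cells were treated for 48 hours with each compound at five concentrations. Insufficient inhibition: endpoint recorded as highest concentration tested. Here, GI50 denotes the concentration required for 50% inhibition of growth.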 The source made the active and inactive calls. Cut-off read from the data, not from the text of the source: active = GI50 up to about 1.1 µM and inactive = higher. *1 amine or outer side, *2 acyl side, *3 side chain or, on linkers, in order; H or OH if unused. Where a SMILES comes first, the peptide text is derived from it. Bridges are numbered along the chain shown (N, C = ends). [ ]: non-standard residue; d: D form. The star is where a group is joined. X36 = O=C(C(CCCCNO[*:3])N[*:1])[*:2]; Fmoc = O=C(OCC1c2ccccc2-c2ccccc21)*

Assays:
Experiment in all cases: NCI-60 cell line screen, 48 h
[1] = tested on: HCT-15
[2] = tested on: SNB-19
[3] = tested on: NCI-H522
[4] = tested on: NCI-H23
[5] = tested on: HL-60
[6] = tested on: NCI-H226
[7] = tested on: HCC 2998
[8] = tested on: CAKI-1
[9] = tested on: PC-3
[10] = tested on: NCI/ADR-RES
[11] = tested on: U-251
[12] = tested on: Hs-578T
[13] = tested on: RPMI-8226
[14] = tested on: RXF 393
[15] = tested on: M14
[16] = tested on: SN12C
[17] = tested on: HOP-92
[18] = tested on: SF-539
[19] = tested on: SF-295
[20] = tested on: SNB-75
[21] = tested on: 786-0
[22] = tested on: MOLT-4
[23] = tested on: ACHN
[24] = tested on: SK-MEL-5
[25] = tested on: UO-31
[26] = tested on: HCT-116
[27] = tested on: MDA-MB-435
[28] = tested on: UACC-257
[29] = tested on: MDA-MB-231
[30] = tested on: MCF7
[31] = tested on: UACC-62
[32] = tested on: EKVX
[33] = tested on: A498
[34] = tested on: HOP-62
[35] = tested on: OVCAR-4
[36] = tested on: T47D
[37] = tested on: SK-MEL-2
[38] = tested on: BT-549
[39] = tested on: NCI-H460
[40] = tested on: HT-29
[41] = tested on: KM12
[42] = tested on: COLO 205
[43] = tested on: A549
[44] = tested on: OVCAR-3
[45] = tested on: TK-10
[46] = tested on: SF-268
[47] = tested on: SW-620
[48] = tested on: OVCAR-8
[49] = tested on: SK-OV-3
[50] = tested on: IGROV-1
[51] = tested on: K562
[52] = tested on: DU-145
[53] = tested on: SK-MEL-28
[54] = tested on: OVCAR-5
[55] = tested on: LOX IMVI
[56] = tested on: CCRF-CEM
[57] = tested on: Malme-3M
[58] = tested on: SR

CC(=O)OC1CC2C(C)(C)C(=O)C=CC2(C)C2CCC3(C)C(c4ccoc4)OC(=O)C4OC43C12C (stereo not given)
GI50 [1]: 5.07 µM | GI50 [2]: 19.5 µM (inactive) | GI50 [3]: 5.18 µM (inactive) | GI50 [4]: 7.53 µM (inactive) | GI50 [5]: 5.55 µM (inactive) | GI50 [6]: 22.2 µM (inactive) | GI50 [7]: 3.33 µM (inactive) | GI50 [8]: 11.9 µM (inactive) | GI50 [9]: 6.61 µM (inactive) | GI50 [10]: 5.32 µM (inactive) | GI50 [11]: 6.14 µM (inactive) | GI50 [12]: 3.88 µM (inactive) | GI50 [13]: 2.64 µM (inactive) | GI50 [14]: 4.66 µM (inactive) | GI50 [15]: 10.5 µM (inactive) | GI50 [16]: 4.21 µM (inactive) | GI50 [17]: 14.5 µM (inactive) | GI50 [18]: 6.55 µM (inactive) | GI50 [19]: 14.6 µM (inactive) | GI50 [20]: > 100 µM (inactive) | GI50 [21]: 9.46 µM (inactive) | GI50 [22]: 8.2 µM (inactive) | GI50 [23]: 8.73 µM (inactive) | GI50 [24]: 5.62 µM (inactive) | GI50 [25]: 4.23 µM (inactive) | GI50 [26]: 2.4 µM (inactive) | GI50 [27]: 3.27 µM (inactive) | GI50 [28]: 15.9 µM (inactive) | GI50 [29]: 3.85 µM (inactive) | GI50 [30]: 4.69 µM (inactive) | GI50 [31]: 5.37 µM (inactive) | GI50 [32]: 22.5 µM (inactive) | GI50 [33]: 24.9 µM (inactive) | GI50 [34]: 26 µM (inactive) | GI50 [35]: 32.4 µM (inactive) | GI50 [36]: 12.5 µM (inactive) | GI50 [37]: 13 µM (inactive) | GI50 [38]: 5.77 µM (inactive) | GI50 [39]: 3.48 µM (inactive) | GI50 [40]: 7.46 µM (inactive) | GI50 [41]: 3.92 µM (inactive) | GI50 [42]: 7.5 µM (inactive) | GI50 [43]: 7.66 µM (inactive) | GI50 [44]: 21.6 µM (inactive) | GI50 [45]: 95.1 µM (inactive) | GI50 [46]: 28.5 µM (inactive) | GI50 [47]: 6.28 µM (inactive) | GI50 [48]: 8.04 µM (inactive) | GI50 [49]: 7.71 µM (inactive) | GI50 [50]: 10.1 µM (inactive) | GI50 [51]: 3.54 µM (inactive) | GI50 [52]: 2.85 µM (inactive) | GI50 [53]: 20.4 µM (inactive) | GI50 [54]: 19.7 µM (inactive)

NC(=O)CNC(=O)C1CCCN1C(=O)C1CCCCNOC(=O)CCC(NC(=O)OCC2c3ccccc3-c3ccccc32)C(=O)NC(Cc2c[nH]c3ccccc23)C(=O)N1 (stereo not given) (Fmoc-EW[X36]PG-NH2; ester 1-3; configuration not given here)
GI50 [1]: > 100 µM | GI50 [55]: > 100 µM (inactive) | GI50 [2]: > 100 µM (inactive) | GI50 [3]: > 100 µM (inactive) | GI50 [4]: > 100 µM (inactive) | GI50 [5]: > 100 µM (inactive) | GI50 [56]: > 100 µM (inactive) | GI50 [6]: > 100 µM (inactive) | GI50 [7]: > 100 µM (inactive) | GI50 [9]: > 100 µM (inactive) | GI50 [10]: > 100 µM (inactive) | GI50 [11]: > 100 µM (inactive) | GI50 [12]: > 100 µM (inactive) | GI50 [13]: > 100 µM (inactive) | GI50 [14]: > 100 µM (inactive) | GI50 [15]: 54.3 µM (inactive) | GI50 [16]: > 100 µM (inactive) | GI50 [17]: > 100 µM (inactive) | GI50 [18]: > 100 µM (inactive) | GI50 [19]: > 100 µM (inactive) | GI50 [20]: > 100 µM (inactive) | GI50 [21]: > 100 µM (inactive) | GI50 [22]: > 100 µM (inactive) | GI50 [23]: > 100 µM (inactive) | GI50 [24]: > 100 µM (inactive) | GI50 [25]: 24.9 µM (inactive) | GI50 [26]: > 100 µM (inactive) | GI50 [27]: > 100 µM (inactive) | GI50 [28]: > 100 µM (inactive) | GI50 [29]: 15.2 µM (inactive) | GI50 [30]: 47.9 µM (inactive) | GI50 [57]: > 100 µM (inactive) | GI50 [31]: > 100 µM (inactive) | GI50 [32]: > 100 µM (inactive) | GI50 [34]: > 100 µM (inactive) | GI50 [35]: > 100 µM (inactive) | GI50 [36]: > 100 µM (inactive) | GI50 [37]: > 100 µM (inactive) | GI50 [38]: > 100 µM (inactive) | GI50 [58]: > 100 µM (inactive) | GI50 [39]: > 100 µM (inactive) | GI50 [40]: > 100 µM (inactive) | GI50 [41]: > 100 µM (inactive) | GI50 [42]: > 100 µM (inactive) | GI50 [43]: > 100 µM (inactive) | GI50 [44]: > 100 µM (inactive) | GI50 [45]: > 100 µM (inactive) | GI50 [46]: > 100 µM (inactive) | GI50 [47]: > 100 µM (inactive) | GI50 [48]: > 100 µM (inactive) | GI50 [49]: 63.4 µM (inactive) | GI50 [50]: > 100 µM (inactive) | GI50 [51]: > 100 µM (inactive) | GI50 [52]: > 100 µM (inactive) | GI50 [53]: > 100 µM (inactive) | GI50 [54]: > 100 µM (inactive)
